Results: patent US12371421B2, “Solid forms of a PARP7 inhibitor” (Ribon Therapeutics, Inc., priority 2019, dated 2025)
In brackets after ≈: the same amount, converted by molar mass.

Assay: Approximate solubility of Form A in solvents at room temperature
Type: physicochemical
Protocol: The approximate solubility of Form A was estimated in 27 solvents or co-solvents at room temperature. Approximately 2 mg of solids were weighed into each 3 mL glass vial, to which each of the solvents was added in stepwise until the solids dissolved completely or the total volume reaches 2.0 mL. Solubility ranges were used to guide the solvent selection for polymorph screening described in later examples.

solubility (organic solvent or mixture, thermodynamic from solid, 1,4-Dioxane): 5000 to 10000 µg/mL (≈ 9.55 to 19.1 mM)
solubility (organic solvent or mixture, thermodynamic from solid, 2-MeTHF): < 1000 µg/mL
solubility (organic solvent or mixture, thermodynamic from solid, ACN): 11000 to 22000 µg/mL (≈ 21 to 42 mM)
solubility (organic solvent or mixture, thermodynamic from solid, ACN/MIBK (1:9) v:v): 2000 to 5000 µg/mL (≈ 3.82 to 9.55 mM)
solubility (organic solvent or mixture, thermodynamic from solid, ACN/MTBE (1:9) v:v): 1200 to 2400 µg/mL (≈ 2.29 to 4.59 mM)
solubility (organic solvent or mixture, thermodynamic from solid, ACN/THF (1:4) v:v): 5000 to 10000 µg/mL (≈ 9.55 to 19.1 mM)
solubility (organic solvent or mixture, thermodynamic from solid, ACN/THF (1:9) v:v): 10000 to 20000 µg/mL (≈ 19.1 to 38.2 mM)
solubility (organic solvent or mixture, thermodynamic from solid, Acetone): > 40000 µg/mL
solubility (organic solvent or mixture, thermodynamic from solid, Acetone/n-Heptane (1:4) v:v): < 1300 µg/mL
solubility (organic solvent or mixture, thermodynamic from solid, Acetone/n-Heptane (1:9) v:v): < 1000 µg/mL
solubility (organic solvent or mixture, thermodynamic from solid, CHCl3): 22000 to 44000 µg/mL (≈ 42 to 84.1 mM)
solubility (organic solvent or mixture, thermodynamic from solid, DCM): 19000 to 38000 µg/mL (≈ 36.3 to 72.6 mM)
solubility (organic solvent or mixture, thermodynamic from solid, DCM/MTBE (1:9) v:v): < 1200 µg/mL
solubility (organic solvent or mixture, thermodynamic from solid, DMAc): 22000 to 44000 µg/mL (≈ 42 to 84.1 mM)
solubility (organic solvent or mixture, thermodynamic from solid, DMSO): > 42000 µg/mL
solubility (organic solvent or mixture, thermodynamic from solid, EtOAc): 1900 to 4800 µg/mL (≈ 3.63 to 9.17 mM)
solubility (organic solvent or mixture, thermodynamic from solid, EtOH): < 1100 µg/mL
solubility (organic solvent or mixture, thermodynamic from solid, IPA): < 1100 µg/mL
solubility (organic solvent or mixture, thermodynamic from solid, IPAc): < 1100 µg/mL
solubility (organic solvent or mixture, thermodynamic from solid, MIBK): < 1000 µg/mL
solubility (organic solvent or mixture, thermodynamic from solid, MTBE): < 1000 µg/mL
solubility (organic solvent or mixture, thermodynamic from solid, MeOH): < 1100 µg/mL
solubility (organic solvent or mixture, thermodynamic from solid, NMP): > 38000 µg/mL
solubility (organic solvent or mixture, thermodynamic from solid, THF): < 1100 µg/mL
solubility (organic solvent or mixture, thermodynamic from solid, Toluene): < 1000 µg/mL
solubility (organic solvent or mixture, thermodynamic from solid, n-Heptane): < 1000 µg/mL
solubility (water, thermodynamic from solid, H2O): < 1100 µg/mL
Compound: C[C@@H](COCCC(=O)N1CCN(c2ncc(C(F)(F)F)cn2)CC1)Nc1cn[nH]c(=O)c1C(F)(F)F [Form A, 5-[[(2S)-1-(3-oxo-3-[4-[5-(trifluoromethyl)pyrimidin-2-yl]piperazin-1-yl]propoxy)propan-2-yl]amino]-4-(trifluoromethyl)-2,3-dihydropyridazin-3-one]
